# Test results as given in patent US9657081B2, “Inhibiting peptides derived from triggering receptor expressed on myeloid cells-1 (TREM-1) TREM-like transcript 1 (TLT-1) for treatment of cardiovascular diseases” (INSERM (Institut National de la Sante et de la Recherche …, priority 2013, dated 2017).
# System: TREM-1
# Assay: Rat model of myocardial ischemia-reperfusion, physiologic parameters and micro-TEP imaging
# Assay type: in vivo
# Description: Adult male Wistar rats (360-380 g) were used. All rats were anaesthetized with ketamine (100 mg/kg, intramuscularly) and mechanically ventilated. After a left thoracotomy, the left coronary artery was identified and ligated with a 6-0 prolene surgical suture. LAD occlusion was confirmed by a change in myocardial color from red to white in the ischemia area (Left ventricle). The chest was closed and the skin was sutured with 6-0 silk. The animals returned to their cage where they were supervised until their complete recovery. The postoperative mortality rate of all rats was 20%.
# After surgical LAD occlusion, importance of ischemic area was evaluated by micro-TEP imaging. Animals were then randomized to receive peptide (5 mg/kg) every 24 h for 5 days or placebo (vehicle).
# A further evaluation was performed at 6 weeks by micro-TEP imaging and conductance catheter (Millar) in order to study the treatment effect on myocardial remodeling and myocardial function.
# Animals received same surgery than in permanent ischemia, but with reperfusion of ischemic area by release of the LAD ligation after 60 minutes of ischemia. The same protocol as described above was then applied.
# In all animals, approximately 70 MBq of ^18F-FDG (in a 0.3-0.5 ml volume) was injected intravenously and under a short anaesthesia (1.5-2.5% of isoflurane inhalation) 60 min prior to initiating PET recording. Recording was acquired in list mode under continuous anaesthesia by isoflurane, using a dedicated small animal PET system (Inveon, Siemens, Knoxville, Tenn., USA). The animals were positioned in the prone position and placed on a heating pad to maintain a body temperature within the normal range. The animals were connected to a standard ECG monitor by three electrodes placed on the inner surfaces of limb extremities. Recording times were 20 min for 18F emission and 6 min for 57Co transmission. The coincidence timing window was set to 3.4 ns and the energy window between 350 and 650 keV. Images were reconstructed in 16 cardiac intervals, providing a temporal resolution of 11-15 ms for common heart rate values. Under these conditions, the axial spatial resolution was less than 1.5 mm. In addition, on LV rat phantoms obtained by a stereolithography process, a precise determination of the actual cavity volumes was provided by FDG PET images above the level of 100 μl corresponding to the lower limit for the LV endsystolic volume in adult.
# To investigate the role of TREM-1- and TLT-1-derived peptides in a more relevant model of MI, we performed a transient coronary artery ligation (ischemia-reperfusion model: IR) in rats. After randomisation, animals were then imaged under anaesthesia (micro-TEP) and administered with TREM-1- and TLT-1-derived peptides (3 mg/kg daily for 5 days i.p.) or LR12-scrambled peptide. Imaging was then repeated at 6 weeks before we studied cardiac function by using a conductance catheter (Millar).
sequence,measurement,setting,value
LQEEDAGEYGCM (listed as Homo sapiens) [TLT1-LR12],Body weight,Baseline,391 ± 9 g
same,EDV,Baseline,511 ± 55 µL
same,EF,Baseline,47 ± 6%
same,ESV,Baseline,251 ± 75 µL
same,Heart rate,Baseline,343 ± 43 bpm
same,MI Areas,Baseline,41 ± 20 % of LV
same,Systolic blood pressure,Baseline,134 ± 2 mmHg
same,Body weight,Six weeks,439 ± 12 g
same,"Body weight, difference with baseline",Six weeks,48 ± 10 g
same,EDV,Six weeks,620 ± 34 µL
same,"EDV, difference with baseline",Six weeks,109 ± 55 µL
same,EF,Six weeks,56 ± 5%
same,"EF, difference with baseline",Six weeks,9 ± 7%
same,ESV,Six weeks,273 ± 47 µL
same,"ESV, difference with baseline",Six weeks,22 ± 18 µL
same,Heart rate,Six weeks,370 ± 25 bpm
same,"Heart rate, difference with baseline",Six weeks,27 ± 22 bpm
same,MI Areas,Six weeks,3 ± 9 % of LV
same,"MI Areas, difference with baseline",Six weeks,−38 ± 8 % of LV
same,Systolic blood pressure,Six weeks,167 ± 6 mmHg
same,"Systolic blood pressure, difference with baseline",Six weeks,33 ± 6 mmHg
